# Data reported in US8563254B2, “Biomarkers of tumor pharmacodynamic response” (Novartis AG, priority 2009, dated 2013).
# Key:
# [1] = system: GTL-16 tumor-bearing mice; experiment: Hsp70 expression in GTL-16 xenograft tumors (Western blot, IHC); assay type: in vivo; settings: GTL-16 tumors, single 75 mg/kg dose i.v.
# Procedure: (§1) The in vivo study was carried out in strict accordance with Swiss law for animal protection and was approved by the Swiss Cantonal Veterinary Office of Basel-Stadt. GTL-16 (4×10^6) and A375 cells (5×10^6) were inoculated subcutaneously in the right flank in 200 μl Hanks' balanced salt solution (HBSS) or PBS, respectively. Invasive procedures were performed under Forene anesthesia. All experiments were performed in female Harlan HsdNpa: Athymic Nude-nu mice (Laboratory Animal Services, Novartis Pharma AG, Basel). The animals were kept under optimized hygienic conditions with 12 hr dark, 12 hr light conditions. The animals were fed food and water ad libitum. A single 75 mg/kg and 50 mg/kg dose of Hsp90 inhibitor, NVP-AUY922 was administered to the GTL-16 and A375 tumor-bearing mice, when tumors had reached a mean volume of 200 mm^3-500 mm^3 in size. Mice in the control group were injected with the vehicle (D5W). Serum was isolated and tumors dissected over the time course 0-168 hr. Tumors were cut in two halves. One half was paraffin embedded and the other snap frozen, and stored at −80° C.
# Total protein lysates were prepared from the GTL-16 and A375 cells with RIPA lysis buffer (Upstate, Millipore Corporation, Charlottesville, Va., USA). […] Proteins were quantified by bicinchoninic acid assay (Pierce Biotechnology, Rockford, Ill., USA) for Western blotting. […]
# A375 cells = experiment: Cell viability by CellTiter-Glo, A375; assay type: cell-based, human; settings: A375, 0.3 μM, 72 hr treatment time
# Procedure: Cell Viability was measured by CellTiter-Glo assay (Promega U.S., Madison, Wis., USA). GTL-16 and A375 cells were grown in 6-well poly-D-lysine coated plates (BD Biosciences). Cells were treated with NVP-AUY922. Cell viability was measured 16, 24, 48 and 72 hr post-treatment with Hsp90 inhibitor. Briefly supernatants were removed and cells were washed with 3 ml of PBS, pH 7.4. 1 ml of a two component CellTiter-Glo reagent was added to each well and the plates were shaken vigorously for 2 min, followed by 10 min incubation at room temperature in the dark. Luminescent signal intensity was recorded with an integration time set between 0.25 and 1 s/well.
# GTL-16 cells = experiment: Western blot of nuclear protein fractions, GTL-16; assay type: cell-based, human; settings: GTL-16, 0.3 μM, 16 hr and 24 hr, normalized to total protein
# Procedure: Total protein lysates were prepared from the GTL-16 and A375 cells with RIPA lysis buffer (Upstate, Millipore Corporation, Charlottesville, Va., USA). Cells were washed with PBS and 500 ul of ice-cold RIPA buffer, containing protease inhibitor cocktail tablet (Roche Diagnostic GmbH, Mannheim, Germany) and phosphatase inhibitors (Sigma-Aldrich, Inc., St. Louis, Mo., USA), was added to each plate on ice. After 15 min the cells were scrapped from the plate surface and spun at 16000 RPM for 10 min at 4° C. The supernatant was collected and frozen at −80° C. Nuclear protein fractions were prepared by the NE-PER nuclear and cytoplasmic extraction kit (Pierce Biotechnology, Rockford, Ill., USA). Proteins were quantified by bicinchoninic acid assay (Pierce Biotechnology, Rockford, Ill., USA) for Western blotting.
# Primary antibodies specific for NFκB p65, cREL, p-ERK1/2, p-c-jun, ERK1 and Jun were purchased from Santa Cruz Biotechnology (Santa Cruz Biotechnology, Inc., Santa Cruz, Calif., USA) with the exception of Hsp70 and TBP (nuclear loading control), which were obtained from StressGen (StressGen, Assay Designs, Inc., Aim Arbor, Mich., USA) and Abcam (Abcam Inc., Cambridge, Mass., USA), respectively. […]
# tumor-bearing mice = experiment: Serum IL-8 in tumor-bearing mice, summary of both models; assay type: in vivo; settings: single dose
# Procedure: as §1, with “Serum was isolated and tumors dissected over the time course 0-168 hr. Tumors were cut in two halves. One half was paraffin embedded and the other snap frozen, and stored at −80° C.” left out
# Human IL-8 levels in cell culture supernatants treated with NVP-AUY922 were initially assessed as part of a multiplexed bead-based cytokine panel (hu 27-plex panel I, Bio-rad Laboratories, Hercules, Calif., USA) with a BioPlex Suspension Array System (Bio-rad). Human IL-8 and mouse KC levels in serum derived from GTL-16 and A375 tumor-bearing mice treated with NVP-AUY922 were measured by single-plex cytokine bead-based assay (Milliplex, Millipore, Billerica, Mass., USA). […]
smiles,measurement,setting,value
"CCNC(=O)c1noc(-c2cc(C(C)C)c(O)cc2O)c1-c1ccc(CN2CCOCC2)cc1 [NVP-AUY922, 5-(2,4-Dihydroxy-5-isopropyl-phenyl)-4-(4-morhpolin-4-ylmethyl-phenyl)-isoxazole-3-carboxylic acid ethylamide]",earliest time post-treatment at which Hsp70 is induced in tumor,[1],6 h
same,stable Hsp70 induction in tumor up to,[1],48 h
same,cell viability over time,A375 cells,steadily declines
same,change in nuclear NFκB p65 levels,GTL-16 cells,−26%
same,decrease in nuclear phospho-c-Jun levels,GTL-16 cells,~83%
same,transient decrease in serum IL-8 levels,tumor-bearing mice,40-70%
